Measurements from US8178506B2, “Oligomeric compounds and compositions for use in modulation of small non-coding RNAs” (Regulus Therapeutics Inc., priority 2003, dated 2012).
In the oligonucleotide strings, read from the 5' end, every base follows the letter of its sugar. An asterisk marks phosphorothioate; unmarked linkages are phosphodiester. Other units and linkages are bracketed, terminal groups are in braces. A string of capitals states the bases alone. e = 2'-O-(2-methoxyethyl) (MOE); [5mC] = 5-methylcytosine; d = 2'-deoxy (DNA)

Tests used:
follistatin = experiment: Follistatin mRNA expression in HepG2 cells; assay type: cell-based, human; details: for Follistatin mRNA: four hours, UTC = 100; for Follistatin mRNA expression: Experiment 2, insulin treated: HepG2 cells transfected with oligomeric compound, 1 nM insulin for four hours, UTC + 1 nM insulin = 100
IL-12 mRNA = IL-12 mRNA in LPS-activated primary murine macrophages; assay type: cell-based, mouse; details: normalized to LPS-treated cells without oligomeric compound; for IL-12 mRNA expression, −IFN % UTC: 300 nM oligomeric compound and LPS, no IFN-gamma pretreatment, single experiment; for IL-12 mRNA expression, +IFN % UTC: 300 nM oligomeric compound, stimulation with IFN-gamma and LPS, average of 2 experiments
IGFBP-1 = IGFBP-1 mRNA expression in HepG2 cells; assay type: cell-based, human; details: for IGFBP1 mRNA: four hours, UTC = 100; for IGFBP1 mRNA expression: Experiment 2, insulin treated: HepG2 cells transfected with oligomeric compound, 1 nM insulin for four hours, UTC + 1 nM insulin = 100
[1] = Experiment 1, basal (no insulin), HepG2, 100 nM oligomeric compound
[2] = Experiment 2, 1 nM insulin treated, HepG2, 100 nM oligomeric compound
[3] = HepG2 cells, Experiment 1, basal (no insulin)
[4] = Experiment 3, basal (no insulin), HepG2 cells, 48 hours post-transfection
[5] = Experiment 4, insulin-sensitization: HepG2 cells treated with 1 nM insulin for four hours, 48 h post-transfection, mRNA by real-time PCR

| Substance | Follistatin (% UTC) (follistatin; [1]) | Follistatin (% UTC) (follistatin; [2]) | IGFBP-1 (% UTC) (IGFBP-1; [1]) | IGFBP-1 (% UTC) (IGFBP-1; [2]) | Follistatin mRNA (follistatin; [3]) | IGFBP1 mRNA (IGFBP-1; [3]) | other results |
| --- | --- | --- | --- | --- | --- | --- | --- |
| 327876 (antisense eA*eA*e[5mC]*eA*e[5mC]*eT*eG*eA*eT*eT*eT*e[5mC]*eA*eA*eA*eT*eG*eG*eT*eG*e[5mC]*eT*eA) [compound 327876] | 104 % UTC | 138 % UTC | 93 % UTC | 118 % UTC |  |  | IL-12 mRNA expression, −IFN % UTC (IL-12 mRNA): 194 % UTC; IL-12 mRNA expression, +IFN % UTC (IL-12 mRNA): 9 % UTC |
| 327887 (antisense eG*e[5mC]*eG*eA*e[5mC]*e[5mC]*eA*eT*eG*eG*e[5mC]*eT*eG*eT*eA*eG*eA*e[5mC]*eT*eG*eT*eT*eA) [compound 327887] |  |  |  |  | 113 | 119 | IL-12 mRNA expression, −IFN % UTC (IL-12 mRNA): 287 % UTC; IL-12 mRNA expression, +IFN % UTC (IL-12 mRNA): 33 % UTC |
| 327889 (antisense eG*eT*eG*eG*eT*eA*eA*eT*e[5mC]*e[5mC]*e[5mC]*eT*eG*eG*e[5mC]*eA*eA*eT*eG*eT*eG*eA*eT) [compound 327889] | 56 % UTC | 72 % UTC | 56 % UTC | 73 % UTC |  |  | IL-12 mRNA expression, −IFN % UTC (IL-12 mRNA): 153 % UTC; IL-12 mRNA expression, +IFN % UTC (IL-12 mRNA): 10 % UTC |
| 327890 (antisense eA*eG*e[5mC]*eA*e[5mC]*eA*eA*eA*e[5mC]*eT*eA*e[5mC]*eT*eA*e[5mC]*e[5mC]*eT*e[5mC]*eA) [compound 327890] | 78 % UTC | 115 % UTC | 99 % UTC | 88 % UTC |  |  | IL-12 mRNA expression, −IFN % UTC (IL-12 mRNA): 183 % UTC; IL-12 mRNA expression, +IFN % UTC (IL-12 mRNA): 94 % UTC |
| 327893 (antisense eA*eA*e[5mC]*e[5mC]*eA*e[5mC]*eA*e[5mC]*eA*eA*e[5mC]*e[5mC]*eT*eA*e[5mC]*eT*eA*e[5mC]*e[5mC]*eT*e[5mC]*eA) [compound 327893] |  |  |  |  | 93 | 107 | IL-12 mRNA expression, −IFN % UTC (IL-12 mRNA): 117 % UTC; IL-12 mRNA expression, +IFN % UTC (IL-12 mRNA): 52 % UTC |
| 327899 (antisense e[5mC]*eA*eG*eT*eG*eA*eA*eT*eT*e[5mC]*eT*eA*e[5mC]*e[5mC]*eA*eG*eT*eG*e[5mC]*e[5mC]*eA*eT*eA) [compound 327899] |  |  |  |  | 66 | 105 | IL-12 mRNA expression, −IFN % UTC (IL-12 mRNA): 164 % UTC; IL-12 mRNA expression, +IFN % UTC (IL-12 mRNA): 7 % UTC |
| 327901 (antisense eT*eG*eA*eG*e[5mC]*eT*eA*e[5mC]*eA*eG*eT*eG*e[5mC]*eT*eT*e[5mC]*eA*eT*e[5mC]*eT*e[5mC]*eA) [compound 327901] | 93 % UTC | 135 % UTC | 133 % UTC | 135 % UTC |  |  | IL-12 mRNA expression, −IFN % UTC (IL-12 mRNA): 225 % UTC; IL-12 mRNA expression, +IFN % UTC (IL-12 mRNA): 9 % UTC |
| 327905 (antisense e[5mC]*eA*eG*eA*e[5mC]*eT*e[5mC]*e[5mC]*eG*eG*eT*eG*eG*eA*eA*eT*eG*eA*eA*eG*eG*eA) [compound 327905] | 104 % UTC | 148 % UTC | 107 % UTC | 115 % UTC |  |  |  |
| 327911 (antisense eG*e[5mC]*eT*eA*e[5mC]*e[5mC]*eT*eG*e[5mC]*eA*e[5mC]*eT*eG*eT*eA*eA*eG*e[5mC]*eA*e[5mC]*eT*eT*eT*eT) [compound 327911] |  |  |  |  | 81 | 157 | Follistatin mRNA expression (follistatin): 71; IGFBP1 mRNA expression (IGFBP-1): 160 |
| 327916 (antisense eT*eG*eG*e[5mC]*eA*eT*eT*e[5mC]*eA*e[5mC]*e[5mC]*eG*e[5mC]*eG*eT*eG*e[5mC]*e[5mC]*eT*eT*eA*eA) [compound 327916] |  |  |  |  | 108 | 102 | Follistatin mRNA expression (follistatin): 98; IGFBP1 mRNA expression (IGFBP-1): 128 |
| 327918 (antisense e[5mC]*eT*eA*eG*eT*eA*e[5mC]*eA*eT*e[5mC]*eA*eT*e[5mC]*eT*eA*eT*eA*e[5mC]*eT*eG*eT*eA) [compound 327918] |  |  |  |  | 75 | 95 | Follistatin mRNA expression (follistatin): 76; IGFBP1 mRNA expression (IGFBP-1): 81 |
| 327922 (antisense eT*e[5mC]*eA*eG*eT*eT*eT*eT*eG*e[5mC]*eA*eT*eG*eG*eA*eT*eT*eT*eG*e[5mC]*eA*e[5mC]*eA) [compound 327922] | 57 % UTC | 61 % UTC | 109 % UTC | 104 % UTC |  |  |  |
| 327933 (antisense eA*eA*eG*eG*eG*eA*eT*eT*e[5mC]*e[5mC]*eT*eG*eG*eG*eA*eA*eA*eA*e[5mC]*eT*eG*eG*eA*e[5mC]) [compound 327933] | 112 % UTC | 185 % UTC | 125 % UTC | 179 % UTC |  |  |  |
| 327934 (antisense eG*eG*eT*eA*e[5mC]*eA*eA*eT*e[5mC]*eA*eA*e[5mC]*eG*eG*eT*e[5mC]*eG*eA*eT*eG*eG*eT) [compound 327934] | 140 % UTC | 103 % UTC | 231 % UTC | 244 % UTC |  |  |  |
| 327954 (antisense eA*e[5mC]*eA*eA*eA*eG*eT*eT*e[5mC]*eT*eG*eT*eG*eA*eT*eG*e[5mC]*eA*e[5mC]*eT*eG*eA) [compound 327954] | 100 % UTC | 105 % UTC | 118 % UTC | 120 % UTC |  |  |  |
| 328114 (antisense eA*eA*eT*e[5mC]*eT*e[5mC]*eA*eT*eT*eT*eT*e[5mC]*eA*eT*eA*e[5mC]*eT*eT*eG*e[5mC]*eA) [compound 328114] |  |  |  |  |  |  | Follistatin mRNA expression (follistatin): 81; IGFBP1 mRNA expression (IGFBP-1): 177 |
| 328115 (antisense eA*eG*eA*eA*eG*eG*eT*eG*eG*eG*eG*eA*eG*e[5mC]*eA*eG*e[5mC]*eG*eT*e[5mC]*eA) [compound 328115] |  |  |  |  |  |  | Follistatin mRNA expression (follistatin): 91; IGFBP1 mRNA expression (IGFBP-1): 120 |
| 328125 (antisense eT*eA*eT*eG*eA*eA*eA*eT*eG*e[5mC]*e[5mC]*eA*eG*eA*eG*e[5mC]*eT*eG*e[5mC]*e[5mC]*eA) [compound 328125] |  |  |  |  |  |  | Follistatin mRNA expression (follistatin): 107; IGFBP1 mRNA expression (IGFBP-1): 216 |
| 328677 (eT*e[5mC]*e[5mC]*eT*eG*dG*dA*dT*dG*dA*dT*dA*dT*d[5mC]*dT*eA*e[5mC]*e[5mC]*eT*e[5mC]; antisense) [compound 328677] |  |  |  |  |  |  | Follistatin (% UTC) (follistatin; [4]): 130 % UTC; Follistatin (% UTC) (follistatin; [5]): 118 % UTC; IGFBP-1 (% UTC) (IGFBP-1; [4]): 208 % UTC; IGFBP-1 (% UTC) (IGFBP-1; [5]): 159 % UTC |
| 328685 (e[5mC]*eG*eG*e[5mC]*e[5mC]*dG*dG*dA*dG*d[5mC]*d[5mC]*dA*dT*dA*dG*eA*e[5mC]*eT*e[5mC]*eG; antisense) [compound 328685] |  |  |  |  |  |  | Follistatin (% UTC) (follistatin; [4]): 100 % UTC; Follistatin (% UTC) (follistatin; [5]): 157 % UTC; IGFBP-1 (% UTC) (IGFBP-1; [4]): 157 % UTC; IGFBP-1 (% UTC) (IGFBP-1; [5]): 143 % UTC |
| 328691 (e[5mC]*e[5mC]*e[5mC]*e[5mC]*eA*dT*d[5mC]*dT*dT*dA*dG*d[5mC]*dA*dT*d[5mC]*eT*eA*eA*eG*eG) [compound 328691] |  |  |  |  |  |  | Follistatin (% UTC) (follistatin; [4]): 93 % UTC; Follistatin (% UTC) (follistatin; [5]): 104 % UTC; IGFBP-1 (% UTC) (IGFBP-1; [4]): 105 % UTC; IGFBP-1 (% UTC) (IGFBP-1; [5]): 101 % UTC |
| 328759 (antisense eG*eA*eG*eG*eG*dA*dT*dT*dG*dT*dA*dT*dG*dA*dA*e[5mC]*eA*eT*e[5mC]*eT) [compound 328759] |  |  |  |  |  |  | Follistatin (% UTC) (follistatin; [4]): 266 % UTC; Follistatin (% UTC) (follistatin; [5]): 224 % UTC; IGFBP-1 (% UTC) (IGFBP-1; [4]): 356 % UTC; IGFBP-1 (% UTC) (IGFBP-1; [5]): 212 % UTC |
| 338664 (antisense e[5mC]*eA*eG*eA*e[5mC]*eT*e[5mC]*e[5mC]*e[5mC]*eA*eA*e[5mC]*eT*eG*eA*e[5mC]*e[5mC]*eA*eG*eA) [compound 338664] | 93 % UTC | 84 % UTC | 90 % UTC | 100 % UTC |  |  |  |
| 340927 (antisense eT*eG*eA*eG*e[5mC]*dT*dA*d[5mC]*dA*dG*dT*dG*d[5mC]*dT*dT*e[5mC]*eA*eT*e[5mC]*eT*e[5mC]*eA) [compound 340927] | 111 % UTC | 128 % UTC | 201 % UTC | 285 % UTC |  |  |  |
| 341803 (antisense CCACACACTTCCTTACATTCCA; all 2'-MOE, all phosphorothioate, methylation of C not given here) [compound 341803] |  |  |  |  | 68 | 107 |  |
| 341804 (antisense ATCTGCACTGTCAGCACTTT; all 2'-MOE, all phosphorothioate, methylation of C not given here) [compound 341804] |  |  |  |  | 63 | 162 |  |
| 341805 (antisense ACCCTTATCAGTTCTCCGTCCA; all 2'-MOE, all phosphorothioate, methylation of C not given here) [compound 341805] |  |  |  |  | 63 | 105 |  |
| 341806 (antisense GCCAATATTTCTGTGCTGCTA; all 2'-MOE, all phosphorothioate, methylation of C not given here) [compound 341806] |  |  |  |  | 75 | 128 |  |
| 341807 (antisense CTGGGACTTTGTAGGCCAGTT; all 2'-MOE, all phosphorothioate, methylation of C not given here) [compound 341807] |  |  |  |  | 102 | 129 |  |
